Measurements from patent US20220039395A1, “INSECT CONTROL AGENTS” (priority 2018, published 2022).
“Also recorded” adds a separate entry of the source. Ends that are not written are not given here. Alexa‑488‑C5‑maleimide = fluorescent Alexa 488 label coupled to Cys via C5-maleimide

What was measured:
Aphids = test: Feeding with peptides in artificial diet, mortality without other stress; format: in vivo, Myzus persicae; settings: for Dead (48 h) / Dead (72 h) / Dead (96 h) / Dead (120 h) / Dead (144 h): artificial diet supplemented with peptide; for effect on mortality in the absence of additional stressors: no additional stress conditions
Procedure: A standard artificial diet for M. persicae was produced as described in Van Emden (2009) and provided the basal diet to which neuropeptide analogues were added for screening purposes. Neuropeptide analogues were diluted individually in the artificial diet to a pre-determined recommended concentration as follows: 1895 (3.5×10^−5 M) and 2019 (2.0×10^−5 M).
Feeding apparatus were constructed using a set-up developed by Sadeghi et al (2009). For this, a piece of Parafilm was stretched over a Plexiglas ring (h=4 cm, Ø=3 cm) and 100 μl of the artificial diet containing the desired neuropeptide analogue was pipette onto the Parafilm membrane. A second piece of Parafilm, stretched to 4 times the original thickness, was stretched over the original layer, sandwiching the artificial diet between two layers of Parafilm. A strip of Parafilm was wrapped around the circumference of the Plexiglas ring, sealing in the diet. A plastic ring (h=1.2 cm, Ø=3.4 cm) was subsequently placed over the Parafilm layer, creating a walled chamber in which to house test aphids in contact with the Parafilm layer containing the artificial diet. Finally, a small Petri dish (h=1 cm, Ø=3.6 cm), modified for ventilation with net cloth, was placed on top of each feeding apparatus to prevent aphid escape.
To obtain aphids for use in experiments, reproducing anholocyclic adults were placed on individual excised leaves of Chinese cabbage at densities of 5 adults per leaf and allowed to reproduce for 24 h. The stem of each excised leaf was held within a 0.5 mL Eppendorf tube containing water via a punctured hole in the Eppendorf lid, and placed individually within a microcage (L=4 cm, Ø=9.5 cm). Following 24 h, adults were removed and resultant first instar nymphs (<1 day old and synchronised in age to within 24 h) retained. Nymphs were allowed to develop on the Chinese cabbage for 5 days. On day 5, (3rd instar) nymphs were transferred onto the artificial diet containing a neuropeptide analogue at densities of 1 per feeding chamber and monitored daily until death. Aphids were transferred to fresh artificial diet (containing neuropeptide analogue) every 5 days. Life history traits recorded include age at first reproduction, number of nymphs produced per 24 h period, and lifespan. From these parameters, lifetime fecundity and daily fecundity were calculated. Control groups were set up involving aphids reared on the host plant, an artificial diet without a neuropeptide analogue, and an artificial diet containing the native CAPA neuropeptide.
Aphids were reared on artificial diet, alone or supplemented with peptide 2129, 2315, 2316 or 2320. A control group (no test peptide) was reared on a host plant. No other stress conditions were applied.
For peptides 2315, 2316 and 2320, mortality was assessed at 48, 72, 96, 120 and 144 hours. A group of 9 or 10 insects was used for each time point, and all experiments were performed at least 4 times.

aphid = test: Topical application of peptides to aphid abdomen by microinjector, mortality; format: in vivo; settings: 9 nl of 1×10^−5 M peptide in Armid FMPC applied topically to abdomen
Procedure: For peptides 2315, 2320 and 2125, peptides were diluted individually in an Armid FMPC formulation (AkzoNobel Surface Chemistry, Stenungsund, Sweden) to concentration of 1×10^−5 M. Using a Nanoject II Auto-Nanoliter micro-injector, 9 nl of the peptide solution was applied topically to the abdomen of a pre-reproductive adult aphid, coating the cuticle in the solution. Aphids were returned to the host plant and allowed to recover for 24 h before use in experiments. Control aphids were topically applied with 9 nl of the Armid FMPC formulation and, once again, allowed to recover for 24 h on the host plant before use in experiments.
Peptides were applied topically to insect abdomen by microinjector and the insects returned to the plant. Mortality was assessed after 24 hours. Separate controls were performed for each experiment. A group of 9 or 10 insects was used for each time point, and all experiments were performed 3 times.

[1] = system: M. rosae gut, brain and ventral nerve cord; test: Receptor mapping assay using fluorescently labelled neuropeptides; format: binding, Macrosiphum rosae; settings: labelled neuropeptide 10^−7 M; for site of binding in the gut: displaced by excess unlabelled peptide
Procedure: (§1) Aphids were cold anesthetized and the tissue of interest dissected out in a 1:1 solution of Schneider's insect medium and optimized saline.^7,42 The dissected tissue was mounted on a poly-L-lysine-covered 35 mm glass bottom dish containing 1:1 saline. Nuclei were stained via incubation in DAPI (1 μg ml^−1) and a baseline image taken to determine the level of autofluorescence and adjust exposure settings accordingly. All images were recorded on an inverted confocal microscope (Zeiss LSM 510 Meta). A labelled neuropeptide (10^−7 M) was subsequently added and the sample imaged. The concentration of 10^−7 M was chosen for labelled neuropeptides because it represents the minimal concentration required to produce a saturated receptor response, thereby optimizing the conditions for optical detection of ligand-receptor complexes.^7 Following imagining, unlabelled neuropeptide (10^−5 M) was added to the sample and a time-lapse experiment set up to determine if the unlabelled neuropeptide outcompeted the labelled neuropeptide, thus reaffirming the detection of the ligand-receptor complexes. Images were collected every 30 s for a duration of 20-30 m. All images were exported as JPEG files and subsequently viewed in FIJI and Microsoft Illustrator.

[2] = system: M. persicae gut, brain and ventral nerve cord; test: as above; format: binding, Myzus persicae; settings: labelled neuropeptide 10^−7 M; for site of binding in the gut: displaced by excess unlabelled peptide
Procedure: as §1

Myzus persicae [3] = test: Topical application by spraying, air brush; format: in vivo; settings: 750 μl, positive control 28.3 μM, counted 48 hours post spray
Procedure: (§2) Aphids were exposed to test peptides in the absence of additional external stress conditions.
(§3) Brassica rapa (Chinese cabbage; Wong Bok) were infested with 30 adult Myzus persicae aphids per plant. Aphids were left at least 2 hours to settle and begin feeding from the host plant.
Spraying took place inside an externally vented fume cupboard. […] To ensure spray tracking, all sprayed solutions had amaranth dye added, allowing the full surface of the plant to be evenly coated with the aerosolised compound.
The plants to be sprayed were placed inside a plastic disposal bag, inside the fume cupboard. This was used to control the area exposed to the aerosolised liquid, to avoid extensive spraying and cleaning inside the fume cupboard. The bag was further lined with absorbent paper towel to again help contain and control spray.
Each experiment had three controls:
i) no vehicle or peptide air spray only, negative control to assess effect of spraying on aphid ability to remain attached to the plant; ii) vehicle spray only (Tween 24 0.1%); and iii) Imidacloprid positive control (28.3 μM).
Imidacloprid was always applied last to prevent any possibility of stray pesticide being left inside the disposal bag and contaminating a test peptide applied plant.
Spray volumes for all solutions for this experiment 750 μl.
A clean air brush (ABEST AC06k30) was loaded with 750 μl of peptide solution diluted in […] 0.1% vehicle. For this experiment there were three test conditions: 1895 alone (1×10^−5M); 2129 alone (1×10^−5M); and a simultaneous co-application of 1895+2129 together (1×10^−5M of each peptide). During application, the air brush was held within the plastic bag and the compressor turned on. The air brush was then gently sprayed back and forth across the plant. […]
Post peptide application, each condition was placed into its own individual Bugdorm (Watkins and Doncaster, 44545), to prevent repulsed or displaced aphids moving from one condition to another. Numbers of alive and dead aphids on the plant were counted 48 hours post spray, and the presence of any fresh nymphs noted. […]

Myzus persicae [4] = test: Topical application by spraying, Potter Spray Tower; format: in vivo; settings: 3000 μl, positive control 28.3 μM, counted 48 hours post spray
Procedure: as §2, §3
Spraying took place inside a designated spray room. To ensure spray tracking, all sprayed solutions had amaranth dye added.
Potter Spray Tower (Burkard Manufacturing) was ‘primed’ by spraying 1000 μl of liquid coating the inside of the tower. Two controls were used:
i) vehicle spray only (Croda ATPlus UEP 100 LQ-(CQ) 0.1% v/v); and ii) Imidacloprid positive control (28.3 μM).
Imidacloprid was always applied last and via a second, separate, Potter Tower, to prevent any possibility of stray pesticide being left inside the tower and contaminating a test peptide-applied plant.
Spray volumes for all solutions were 3000 μl. The 6.9 mm spray head was loaded with 3000 μl of a 1×10^−5M peptide solution diluted in ATPlus 0.1%. After spraying was completed the plant was allowed to rest on the spray platform for 30 seconds to allow settling of the sprayed chemical.
For this experiment there were three test conditions: 1895 alone (1×10^−5M); 2129 alone (1×10^−5M); and a simultaneous co-application of 1895+2129 together (1×10^−5M of each peptide).
Post peptide application, each condition was placed into its own individual Bugdorm (Watkins and Doncaster, 44545), to prevent repulsed or displaced aphids moving from one condition to another. Numbers of alive and dead aphids on the plant were counted 48 hours post spray, and the presence of any fresh nymphs noted. Plants were watered prior to spraying but not afterwards to eliminate the possibility of drowning any aphids present or washing off the sprayed liquid.
Post spraying, the spray head was filled with over 3000 μl of 70% ethanol and sprayed until empty. The spray head was carefully removed and rinsed with 70% ethanol as some amaranth dye was observed on the spray head. […]

Row | Compound | Dead (48 h) (Aphids) [%] | Dead (72 h) (Aphids) [%] | Dead (96 h) (Aphids) [%] | Dead (120 h) (Aphids) [%] | Dead (144 h) (Aphids) [%] | effect on mortality in the absence of additional stressors (Aphids) | Dead (24 h) (aphid) [%] | effect on mortality in the absence of additional stressors (Aphids; listed as 2135) | staining of brain and ventral nerve cord (VNC) [1] | site of binding in the gut [1] | staining of brain and ventral nerve cord (VNC) [2] | site of binding in the gut [2] | % Lethality (Myzus persicae [3]) [%] | % Lethality (Myzus persicae [4]) [%]
1 | ASG[βhL]V[βA]FPRV-NH2 [compound 2320] | 70 | 80 | 80 | 80 | 85 | increase mortality in the absence of additional stress conditions; also recorded: increase mortality in the absence of additional stressors | 33.3 | – | – | – | – | – | – | –
2 | ASG[βhL]VAFPRV-NH2 [compound 2315] | 45.0 | 60.0 | 70.0 | 77.5 | 80.0 | increase mortality in the absence of additional stressors | 33.3 | increase mortality in the absence of additional stress conditions | – | – | – | – | – | –
3 | Alexa-488-C5-maleimide-CNSVVLGKKQRFHSWGamide (C(Alexa‑488‑C5‑maleimide)NSVVLGKKQRFHSWG-NH2) [kinin-F] | – | – | – | – | – | – | – | – | no specific staining | bind to the circular and longitudinal muscles of the aphid gut | staining apparent in a bilateral symmetrical ‘ladder’ of neuronal clusters | bind to the circular and longitudinal muscles of the aphid gut | – | –
4 | TMR-C5-maleimide-CGANMGLYAFPRVamide (TMR-C5-maleimide on Cys; C-terminal amide; labelled CAPA-1) [CAPA-1-F] | – | – | – | – | – | – | – | – | no sites of receptor binding in either the brain or the VNC | bind to the circular and longitudinal muscles of the aphid gut | no sites of receptor binding in either the brain or the VNC | bind to the circular and longitudinal muscles of the aphid gut | – | –
5 | O=[N+]([O-])NC1=NCCN1Cc1ccc(Cl)nc1 [Imadocloprid, Imidacloprid, reference compound] | – | – | – | – | – | – | – | – | – | – | – | – | 100 | 93
